# Measured values taken from ChEMBL document CHEMBL3352542, “Synthesis, biological evaluation and molecular modeling study of 2-(1,3,4-thiadiazolyl-thio and 4-methyl-thiazolyl-thio)-quinazolin-4-ones as a new class of DHFR inhibitors” (Bioorg Med Chem Lett, 2014).
# pIC50: −log10 of the molar value. Calls of active or inactive are those of the source. The calls are words filed in the database; no cut-off is given here.
# Tests used:
# MCF7 = assay: Growth inhibition of human MCF7 cells at 10 uM after 48 hrs; format: functional; details: for inhibition of growth at 10 µM: MCF7, 48 h, read-out: GI
# [1] = (§1) Growth inhibition of human UO31 cells at 10 uM after 48 hrs; format: functional; details: UO-31, 48 h, read-out: GI
# Candida albicans = assay: Antimicrobial activity against Candida albicans assessed as inhibition zone at 200 ug/disk after 24 hrs by disc-diffusion method; format: functional; details: read-out: IZ
# Staphylococcus aureus = assay: Antimicrobial activity against Staphylococcus aureus assessed as inhibition zone at 200 ug/disk after 24 hrs by disc-diffusion method; format: functional; details: read-out: IZ
# Pseudomonas aeruginosa = assay: Antimicrobial activity against Pseudomonas aeruginosa assessed as inhibition zone at 200 ug/disk after 24 hrs by disc-diffusion method; format: functional; details: read-out: IZ
# Bacillus subtilis = assay: Antimicrobial activity against Bacillus subtilis assessed as inhibition zone at 200 ug/disk after 24 hrs by disc-diffusion method; format: functional; details: read-out: IZ
# Dihydrofolate reductase = target: T1, Dihydrofolate reductase (Bos taurus, UniProt P00376); assay: Inhibition of bovine liver DHFR
# T1 sequence (P00376 whole entry): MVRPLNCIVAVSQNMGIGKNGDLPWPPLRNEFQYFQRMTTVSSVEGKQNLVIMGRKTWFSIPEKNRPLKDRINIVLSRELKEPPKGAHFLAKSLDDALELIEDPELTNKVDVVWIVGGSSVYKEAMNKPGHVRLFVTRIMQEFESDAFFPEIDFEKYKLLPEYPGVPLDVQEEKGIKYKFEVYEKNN
# T47D = assay: Growth inhibition of human T47D cells at 10 uM after 48 hrs; format: functional
# Escherichia coli = assay: Antimicrobial activity against Escherichia coli assessed as inhibition zone at 200 ug/disk after 24 hrs by disc-diffusion method; format: functional; details: read-out: IZ
# UACC-257 = assay: Growth inhibition of human UACC257 cells at 10 uM after 48 hrs; format: functional
# A498 = assay: Growth inhibition of human A498 cells at 10 uM after 48 hrs; format: functional
# ACHN = assay: Growth inhibition of human ACHN cells at 10 uM after 48 hrs; format: functional
# UACC-62 = assay: Growth inhibition of human UACC62 cells at 10 uM after 48 hrs; format: functional
# CAKI-1 = assay: Growth inhibition of human CAKI-1 cells at 10 uM after 48 hrs; format: functional
# OVCAR-3 = assay: Growth inhibition of human OVCAR3 cells at 10 uM after 48 hrs; format: functional
# TK-10 = assay: Growth inhibition of human TK10 cells at 10 uM after 48 hrs; format: functional
# OVCAR-8 = assay: Growth inhibition of human OVCAR8 cells at 10 uM after 48 hrs; format: functional
# SF-268 = assay: Growth inhibition of human SF268 cells at 10 uM after 48 hrs; format: functional
# Malme-3M = assay: Growth inhibition of human MALME-3M cells at 10 uM after 48 hrs; format: functional
# LOX IMVI = assay: Growth inhibition of human LOXIMVI cells at 10 uM after 48 hrs; format: functional
# HT-29 = assay: Growth inhibition of human HT-29 cells at 10 uM after 48 hrs; format: functional
# OVCAR-4 = assay: Growth inhibition of human OVCAR4 cells at 10 uM after 48 hrs; format: functional
# HCT-15 = assay: Growth inhibition of human HCT15 cells at 10 uM after 48 hrs; format: functional
# HL-60(TB) = assay: Growth inhibition of human HL-60(TB) cells at 10 uM after 48 hrs; format: functional
# UO-31 = assay: as §1; format: functional
# 786-0 = assay: Growth inhibition of human 786-0 cells at 10 uM after 48 hrs; format: functional
# M14 = assay: Growth inhibition of human M14 cells at 10 uM after 48 hrs; format: functional
# U-251 = assay: Growth inhibition of human U251 cells at 10 uM after 48 hrs; format: functional
# SNB-75 = assay: Growth inhibition of human SNB75 cells at 10 uM after 48 hrs; format: functional
# Hs-578T = assay: Growth inhibition of human Hs 578T cells at 10 uM after 48 hrs; format: functional
# SF-295 = assay: (§2) Growth inhibition of human SF295 cells at 10 uM after 48 hrs; format: functional
# SR = assay: Growth inhibition of human SR cells at 10 uM after 48 hrs; format: functional
# NCI/ADR-RES = assay: Growth inhibition of human NCI-ADR-RES cells at 10 uM after 48 hrs; format: functional
# KM12 = assay: Growth inhibition of human KM12 cells at 10 uM after 48 hrs; format: functional
# HCT-116 = assay: Growth inhibition of human HCT116 cells at 10 uM after 48 hrs; format: functional
# SN12C = assay: Growth inhibition of human SN12C cells at 10 uM after 48 hrs; format: functional
# NCI-H226 = assay: Growth inhibition of human NCI-H226 cells at 10 uM after 48 hrs; format: functional
# SW-620 = assay: Growth inhibition of human SW620 cells at 10 uM after 48 hrs; format: functional
# SNB-19 = assay: Growth inhibition of human SNB19 cells at 10 uM after 48 hrs; format: functional
# A549 = assay: Growth inhibition of human A549 cells at 10 uM after 48 hrs; format: functional
# HCC 2998 = assay: Growth inhibition of human HCC2998 cells at 10 uM after 48 hrs; format: functional
# MDA-MB-468 = assay: Growth inhibition of human MDA-MB-468 cells at 10 uM after 48 hrs; format: functional
# RPMI-8226 = assay: Growth inhibition of human RPMI8226 cells at 10 uM after 48 hrs; format: functional
# K562 = assay: Growth inhibition of human K562 cells at 10 uM after 48 hrs; format: functional
# PC-3 = assay: (§3) Growth inhibition of human PC3 cells at 10 uM after 48 hrs; format: functional
# MDA-MB-435 = assay: Growth inhibition of human MDA-MB-435 cells at 10 uM after 48 hrs; format: functional
# RXF 393 = assay: Growth inhibition of human RXF393 cells at 10 uM after 48 hrs; format: functional
# COLO 205 = assay: Growth inhibition of human COLO205 cells at 10 uM after 48 hrs; format: functional
# MOLT-4 = assay: Growth inhibition of human MOLT4 cells at 10 uM after 48 hrs; format: functional
# HOP-92 = assay: (§4) Growth inhibition of human HOP92 cells at 10 uM after 48 hrs; format: functional
# CCRF-CEM = assay: Growth inhibition of human CCRF-CEM cells at 10 uM after 48 hrs; format: functional
# NCI-H23 = assay: Growth inhibition of human NCI-H23 cells at 10 uM after 48 hrs; format: functional
# NCI-H522 = assay: Growth inhibition of human NCI-H522 cells at 10 uM after 48 hrs; format: functional
# MDA-MB-231 = assay: Growth inhibition of human MDA-MB-231 cells at 10 uM after 48 hrs; format: functional
# BT-549 = assay: Growth inhibition of human BT549 cells at 10 uM after 48 hrs; format: functional
# OVCAR-5 = assay: Growth inhibition of human OVCAR5 cells at 10 uM after 48 hrs; format: functional
# NCI-H460 = assay: Growth inhibition of human NCI-H460 cells at 10 uM after 48 hrs; format: functional
# SK-MEL-5 = assay: Growth inhibition of human SK-MEL-5 cells at 10 uM after 48 hrs; format: functional
# SF-539 = assay: Growth inhibition of human SF539 cells at 10 uM after 48 hrs; format: functional
# [2] = as §2; format: functional; details: SF-295, 48 h, read-out: GI
# [3] = as §3; format: functional; details: PC-3, 48 h, read-out: GI
# [4] = as §4; format: functional; details: HOP-92, 48 h, read-out: GI
smiles,measurement,setting,value
Cc1nc(N)sc1Sc1nc2ccc(Cl)cc2c(=O)n1-c1ccccc1,inhibition of growth at 10 µM,MCF7,18%
same,inhibition of growth at 10 µM,[1],32.6%
same,zone of inhibition at 200 µg/disc,Candida albicans,8 mm
same,zone of inhibition at 200 µg/disc,Staphylococcus aureus,8 mm
same,zone of inhibition at 200 µg/disc,Pseudomonas aeruginosa,8 mm
same,zone of inhibition at 200 µg/disc,Bacillus subtilis,8 mm
same,pIC50,Dihydrofolate reductase,5.30
same,inhibition of growth at 10 µM,T47D; read-out: GI,14.3%
same,zone of inhibition at 200 µg/disc,Escherichia coli,8 mm
COc1cc2nc(Sc3sc(N)nc3C)n(-c3ccc(C)cc3)c(=O)c2cc1OC,growth inhibition (GI),UACC-257,inactive
same,growth inhibition (GI),A498,inactive
same,growth inhibition (GI),ACHN,inactive
same,growth inhibition (GI),UACC-62,inactive
same,growth inhibition (GI),CAKI-1,inactive
same,growth inhibition (GI),OVCAR-3,inactive
same,growth inhibition (GI),TK-10,inactive
same,growth inhibition (GI),OVCAR-8,inactive
same,growth inhibition (GI),SF-268,inactive
same,growth inhibition (GI),Malme-3M,inactive
same,growth inhibition (GI),LOX IMVI,inactive
same,growth inhibition (GI),HT-29,inactive
same,growth inhibition (GI),OVCAR-4,inactive
same,growth inhibition (GI),HCT-15,inactive
same,growth inhibition (GI),MCF7,inactive
same,growth inhibition (GI),HL-60(TB),inactive
same,growth inhibition (GI),UO-31,inactive
same,growth inhibition (GI),786-0,inactive
same,zone of inhibition at 200 µg/disc,Candida albicans,8 mm
same,growth inhibition (GI),M14,inactive
same,growth inhibition (GI),U-251,inactive
same,zone of inhibition at 200 µg/disc,Staphylococcus aureus,8 mm
same,growth inhibition (GI),SNB-75,inactive
same,growth inhibition (GI),Hs-578T,inactive
same,growth inhibition (GI),SF-295,inactive
same,zone of inhibition at 200 µg/disc,Pseudomonas aeruginosa,8 mm
same,growth inhibition (GI),SR,inactive
same,zone of inhibition at 200 µg/disc,Bacillus subtilis,8 mm
same,growth inhibition (GI),NCI/ADR-RES,inactive
same,growth inhibition (GI),KM12,inactive
same,growth inhibition (GI),HCT-116,inactive
same,growth inhibition (GI),SN12C,inactive
same,growth inhibition (GI),NCI-H226,inactive
same,growth inhibition (GI),SW-620,inactive
same,growth inhibition (GI),SNB-19,inactive
same,growth inhibition (GI),A549,inactive
same,growth inhibition (GI),HCC 2998,inactive
same,growth inhibition (GI),MDA-MB-468,inactive
same,growth inhibition (GI),RPMI-8226,inactive
same,growth inhibition (GI),K562,inactive
same,growth inhibition (GI),PC-3,inactive
same,growth inhibition (GI),MDA-MB-435,inactive
same,growth inhibition (GI),RXF 393,inactive
same,growth inhibition (GI),COLO 205,inactive
same,growth inhibition (GI),MOLT-4,inactive
same,growth inhibition (GI),HOP-92,inactive
same,pIC50,Dihydrofolate reductase,5.10
same,growth inhibition (GI),CCRF-CEM,inactive
same,growth inhibition (GI),T47D,inactive
same,growth inhibition (GI),NCI-H23,inactive
same,growth inhibition (GI),NCI-H522,inactive
same,growth inhibition (GI),MDA-MB-231,inactive
same,zone of inhibition at 200 µg/disc,Escherichia coli,8 mm
same,growth inhibition (GI),BT-549,inactive
same,growth inhibition (GI),OVCAR-5,inactive
same,growth inhibition (GI),NCI-H460,inactive
same,growth inhibition (GI),SK-MEL-5,inactive
same,growth inhibition (GI),SF-539,inactive
Nc1nnc(Sc2nc3ccc(Cl)cc3c(=O)n2-c2ccc(Oc3ccccc3)cc2)s1,inhibition of growth at 10 µM,"HL-60(TB); HL-60, 48 h, read-out: GI",12%
same,inhibition of growth at 10 µM,[1],17%
same,zone of inhibition at 200 µg/disc,Candida albicans,8 mm
same,zone of inhibition at 200 µg/disc,Staphylococcus aureus,8 mm
same,zone of inhibition at 200 µg/disc,Pseudomonas aeruginosa,8 mm
same,zone of inhibition at 200 µg/disc,Bacillus subtilis,8 mm
same,pIC50,Dihydrofolate reductase,6.40
same,zone of inhibition at 200 µg/disc,Escherichia coli,8 mm
COc1cc2nc(Sc3sc(N)nc3C)n(-c3ccccc3)c(=O)c2cc1OC,inhibition of growth at 10 µM,MCF7,21.7%
same,inhibition of growth at 10 µM,[1],32.3%
same,zone of inhibition at 200 µg/disc,Candida albicans,8 mm
same,zone of inhibition at 200 µg/disc,Staphylococcus aureus,8 mm
same,zone of inhibition at 200 µg/disc,Pseudomonas aeruginosa,8 mm
same,inhibition of growth at 10 µM,SR; read-out: GI,15%
same,zone of inhibition at 200 µg/disc,Bacillus subtilis,8 mm
same,pIC50,Dihydrofolate reductase,5.15
same,inhibition of growth at 10 µM,"NCI-H522; NCI-H522, 48 h, read-out: GI",25.6%
same,zone of inhibition at 200 µg/disc,Escherichia coli,8 mm
COc1cc2nc(Sc3nnc(N)s3)n(-c3ccccc3)c(=O)c2cc1OC,inhibition of growth at 10 µM,[1],14.2%
same,zone of inhibition at 200 µg/disc,Candida albicans,8 mm
same,zone of inhibition at 200 µg/disc,Staphylococcus aureus,8 mm
same,inhibition of growth at 10 µM,[2],10.6%
same,zone of inhibition at 200 µg/disc,Pseudomonas aeruginosa,8 mm
same,zone of inhibition at 200 µg/disc,Bacillus subtilis,8 mm
same,inhibition of growth at 10 µM,"MDA-MB-468; MDA-MB-468, 48 h, read-out: GI",10.4%
same,inhibition of growth at 10 µM,[3],10.9%
same,inhibition of growth at 10 µM,[4],15.4%
same,pIC50,Dihydrofolate reductase,5.00
same,zone of inhibition at 200 µg/disc,Escherichia coli,8 mm
COc1ccc(-n2c(Sc3nnc(N)s3)nc3cc(OC)c(OC)cc3c2=O)cc1,zone of inhibition at 200 µg/disc,Candida albicans,8 mm
same,zone of inhibition at 200 µg/disc,Staphylococcus aureus,8 mm
same,zone of inhibition at 200 µg/disc,Pseudomonas aeruginosa,8 mm
same,zone of inhibition at 200 µg/disc,Bacillus subtilis,8 mm
same,inhibition of growth at 10 µM,[4],33.7%
same,pIC50,Dihydrofolate reductase,5.15
same,zone of inhibition at 200 µg/disc,Escherichia coli,8 mm
